# Measured values from patent US4250259A, “Microbiological production of ketones from C3 -C6 secondary alcohols” (priority 1979, dated 1981).
# Where two headings read alike, the source gives them in different places.
# Legend:
# [1] = tested on: purified secondary alcohol dehydrogenase; experiment: substrate specificity, electron acceptor and stoichiometry of purified yeast SADH; details: for oxidation by the purified yeast secondary alcohol dehydrogenase: examined spectrophotometrically
# [2] = tested on: cell suspensions of C1-utilizers; experiment: studies on production of 2-butanone from 2-butanol by cell suspensions of the strains tested; type: cell-based; details: for inhibition of production of 2-butanone from 2-butanol by cell suspensions: strains tested
# Text: The following summarizes tests conducted on the optimal conditions for the production of methyl ketones from C3 -C6 sec. alcohols.
# The substrate specificity for the oxidation of C3 -C6 secondary alcohols by the strains of C1 -utilizers was studied.
# [3] = tested on: purified secondary alcohol dehydrogenase (SADH); experiment: inhibition of purified SADH by metal-chelating agents, thioreagents, metals; type: biochemical, Pseudomonas sp. ATCC 21439
# Experimental: Secondary alcohol dehydrogenase (SADH) from an obligate methanol utilizer, Pseudomonas sp. ATCC 21439 was purified as follows. […] 0.05 M sodium phosphate buffer, pH 7.0 with 0.5 mM dithiothretol (buffer A) and were disrupted sonically (5×1 min.). The crude extract was separated by centrifugation. The crude extract was heat-treated at 50° C. in a water bath for 10 minutes. The resulting precipitate was removed by centrifugation. To the supernatant solution, 25 ml of protamine sulfate solution (2% solution in 0.1 M Tris base) was added dropwise with continuous stirring. After standing for 30 minutes, the extract was centrifuged. The supernatant solution was fractionated with solid ammonium sulfate. […] This DEAE-cellulose eluate was concentrated by ammonium sulfate fractionation. Material precipitating between 30 and 50% ammonium sulfate saturation was collected by centrifugation and dialyzed overnight against A. This fraction was further washed and filtered through an Amicon unit with XM 50 membrane. The concentrated fraction (6 ml) inside the Amicon unit was applied to an Affi-Gel Blue column (0.8 cm×18 cm) which had been equilibrated with buffer A for affinity chromatography. The column was washed overnight with buffer A (0.18 ml./min.) and then was eluted with buffer A containing 5 mM NAD. Each 1 ml. fraction was collected.
# The purified secondary alcohol dehydrogenase enzyme (SADH) may be used directly for converting C3 -C6 secondary alcohols to the corresponding methyl ketones by the procedures described above; however, a source of NAD^+ must be added to the reaction medium. One can determine the NAD-linked secondary alcohol dehydrogenase activity with a fluorescence spectrophotometer (Perkin Elmer, Model MPF 44A) by following the formation of reduced NAD (Ex 340 nm, Em 460 nm). The assay system (3 ml.) will typically contain: sodium phosphate buffer pH 7.0, 150 μmol; NAD 1.0 μmol; a given amount of enzyme preparation; and 20 μmol secondary alcohol. The reaction is started by the addition of secondary alcohol. One unit of SADH enzyme activity represents the reduction of one nmole NAD per minute.
# The effect of metal-chelating agents and thioreagents on the activity of the purified SADH enzyme were studied. […] The possibility of ethanol or n-propanol as an inhibitor was studied.
# [4] = tested on: cell-free particulate fractions of methane-grown methylotrophs; experiment: inhibitors and electron donors of n-alkane conversion to sec. alcohols by cell-free particulate fractions; type: biochemical
# Text: The conditions for preparing the cell suspensions or the cell-free particulate fractions from methane-grown methylotroph microorganisms is the same as described above.
# [5] = tested on: Methylosinus trichosporium OB3b NRRL B-11,196; experiment: conversion of n-alkanes to oxidation products by cell suspensions (Table XVIII); type: cell-based; details: methane-grown cell suspension, pH 7.0
# Experimental: (§1) ^(a) Cell-suspensions of methanegrown methylotroph microorganisms
# (§2) indicated in 0.15 M phosphate buffer, pH 7.0 incubated in the alkanes as
# (§3) indicated at 3° C. The oxidation products were determined by g.l.c
# [6] = tested on: Methylococcus capsulatus CRL M1 NRRL B-11,219; experiment: as above; type: cell-based; details: methane-grown cell suspension, pH 7.0
# Experimental: as §1, §2, §3
# cell-free SADH system = experiment: cofactor requirement of the cell-free SADH systems; type: biochemical; details: cell-free systems tested
# Experimental: To prepare the cell-free secondary alcohol dehydrogenase (SADH) system, the washed cells were disrupted with a Wave Energy Ultrasonic Oscillator, Model W201 (Wave Energy System, Inc., Newtown, Pa.) and centrifuged at 20,000×g. for 30 minutes. […] The enzyme activity was measured with a fluorescence spectrophotometer (Perkin Elmer, Model MPF 44A) by following the formation of reduced NAD (EX 340 nm, Em 460 nm). The formation of reduced NAD was also followed with an absorption spectrophotometer at 340 nm. The assay system (3 ml.) contained: potassium phosphate buffer pH 7.0; 150 μmol.; NAD 1 μmol.; a given amount of enzyme preparation; and secondary alcohol 10 μmol. The reaction was started by the addition of substrate. One unit of enzyme activity represents the reduction of one μmole NAD per minute. Protein concentrations were determined by the Lowry method (J. Biol. Chem., 193: 255-275 (1951)).
# [7] = tested on: purified secondary alcohol dehydrogenase (SADH); experiment: substrate specificity and Michaelis constants of purified SADH; type: biochemical, Pseudomonas sp. ATCC 21439
# [8] = each inhibitor at a final concentration of 1 mM, measured spectrofluorometrically
molecule,measurement,setting,value
"CC(O)CO (stereo not drawn) [1,2-propandiol]",oxidation by the purified yeast secondary alcohol dehydrogenase,[1],not oxidized
CCCCCC(C)O (stereo not drawn) [2-heptanol],rate of oxidation of secondary alcohols by strains of C1-utilizers,[2]; cell suspensions,much slower rate
same,oxidation by the purified yeast secondary alcohol dehydrogenase,[1],not oxidized
CCCCCCC(C)O (stereo not drawn) [2-octanol],oxidation by the purified yeast secondary alcohol dehydrogenase,[1],not oxidized
"O=C(O)c1cc(SSc2ccc([N+](=O)[O-])c(C(=O)O)c2)ccc1[N+](=O)[O-] [5,5'-dithiobis(2-nitrobenzoic acid)]",inhibition of SADH activity,[3],inhibited
same,% inhibition of SADH activity,[3]; [8],100%
Oc1cccc2cccnc12 [8-hydroxyquinoline],inhibition of conversion of n-alkanes to sec. alcohols (words),[4],inhibited
[Co+2] [Co^++],% inhibition of SADH activity,[3]; [8],0%
O=C(O)CN(CCN(CC(=O)O)CC(=O)O)CC(=O)O [EDTA],% inhibition of SADH activity,[3],63%
CC [Ethane],"Conversion Rate, product Ethanol",[5],1.3 μmoles/hr./mg./protein
same,"Conversion Rate, product Ethanol",[6],2.0 μmoles/hr./mg./protein
"Cc1cc2nc3c(=O)[nH]c(=O)nc-3n(C[C@H](O)[C@H](O)[C@H](O)COP(=O)(O)OP(=O)(O)OC[C@H]3O[C@@H](n4cnc5c(N)ncnc54)[C@H](O)[C@@H]3O)c2cc1C [FAD, flavin adenine dinucleotide, reference compound]",effectiveness as cofactor for oxidation of 2-butanol / C3-C6 secondary alcohols,cell-free SADH system,not effective
same,ability to act as electron acceptor/carrier for the purified enzyme,[1],could not act as electron carrier
C [Methane],"Conversion Rate, product Methanol",[5]; […] phosphate buffer,1.5 μmoles/hr./mg./protein
same,"Conversion Rate, product Methanol",[6]; […] phosphate buffer,2.5 μmoles/hr./mg./protein
[Mg+2] [Mg^++],% inhibition of SADH activity,[3]; [8],0%
[Mn+2] [Mn^++],% inhibition of SADH activity,[3]; [8],0%
"CCN1C(=O)C=CC1=O [N-ethylmalemide, N-ethylmaleimide]",inhibition of SADH activity,[3],not inhibited
same,% inhibition of SADH activity,[3]; [8],6%
NC(=O)C1=CN([C@@H]2O[C@H](COP(=O)(O)OP(=O)(O)OC[C@H]3O[C@@H](n4cnc5c(N)ncnc54)[C@H](OP(=O)(O)O)[C@@H]3O)[C@@H](O)[C@H]2O)C=CC1 [NAD(P)H],effectiveness as cofactor for oxidation of 2-butanol / C3-C6 secondary alcohols,cell-free SADH system,not effective
"NC(=O)C1=CN([C@@H]2O[C@H](COP(=O)(O)OP(=O)(O)OC[C@H]3O[C@@H](n4cnc5c(N)ncnc54)[C@H](O)[C@@H]3O)[C@@H](O)[C@H]2O)C=CC1 [NADH, reduced nicotinamide adenine dinucleotide]",use as electron donor for hydroxylation of n-alkanes,[4],requires
"NC(=O)c1ccc[n+]([C@@H]2O[C@H](COP(=O)(O)OP(=O)(O)OC[C@H]3O[C@@H](n4cnc5c(N)ncnc54)[C@H](OP(=O)(O)O)[C@@H]3O)[C@@H](O)[C@H]2O)c1 [NADP, reference compound]",effectiveness as cofactor for oxidation of 2-butanol / C3-C6 secondary alcohols,cell-free SADH system,not effective
same,ability to act as electron acceptor/carrier for the purified enzyme,[1],could not act as electron carrier
"NC(=O)C1=CN([C@@H]2O[C@H](COP(=O)(O)OP(=O)(O)OC[C@H]3O[C@@H](n4cnc5c(N)ncnc54)[C@H](OP(=O)(O)O)[C@@H]3O)[C@@H](O)[C@H]2O)C=CC1 [NADPH, reduced nicotinamide adenine dinucleotide phosphate]",use as electron donor for hydroxylation of n-alkanes,[4],could also be utilized as an electron donor
[N-]=[N+]=[N-] [Sodium azide],% inhibition of SADH activity,[3]; [8],10%
NC(N)=S [Thiourea],inhibition of production of 2-butanone from 2-butanol by cell suspensions,[2],not inhibited
same,inhibition of SADH activity,[3],not inhibited
same,% inhibition of SADH activity,[3]; [8],0%
same,inhibition of conversion of n-alkanes to sec. alcohols (words),[4],inhibited
[Zn+2] [Zn^++],stimulation of SADH activity,[3]; addition of exogenous zinc,did not stimulate
same,% inhibition of SADH activity,[3]; [8],0%
CC=O [acetaldehyde],oxidation by purified SADH,[7],lower rate
O=Cc1ccccc1 [benzaldehyde],oxidation by purified SADH,[7],not oxidized
CCCCO [butan-1-ol],oxidation by the purified yeast secondary alcohol dehydrogenase,[1],not oxidized
"CCC(O)CO (stereo not drawn) [butane 1,2-diol]",oxidation by purified SADH,[7],not oxidized
same,oxidation by the purified yeast secondary alcohol dehydrogenase,[1],not oxidized
"CC(O)CCO (stereo not drawn) [butane 1,3-diol]",oxidation by purified SADH,[7],lower rate
same,oxidation by the purified yeast secondary alcohol dehydrogenase,[1],not oxidized
"CC(O)C(C)O (stereo not drawn) [butane 2,3-diol]",oxidation by purified SADH,[7],lower rate
[Cu+2] [cupric],% inhibition of SADH activity,[3]; [8],25%
OC1CCCCC1 [cyclohexanol],oxidation by purified SADH,[7],lower rate
"O=C1C(Cl)=CC(=Nc2ccc(O)cc2)C=C1Cl [dichlorophenol indophenol, 2,6-dichlorophenol indophenol, reference compound]",effectiveness as cofactor for oxidation of 2-butanol / C3-C6 secondary alcohols,cell-free SADH system,not effective
same,ability to act as electron acceptor/carrier for the purified enzyme,[1],could not act as electron carrier
CCO [ethanol],inhibition of SADH activity,[3],did not inhibit
same,oxidation by the purified yeast secondary alcohol dehydrogenase,[1],not oxidized
[Fe+3] [ferric],% inhibition of SADH activity,[3]; [8],35%
[Fe+2] [ferrous],% inhibition of SADH activity,[3]; [8],50%
C=O [formaldehyde],oxidation by purified SADH,[7],not oxidized
O=C(O)CI [iodoacetic acid],% inhibition of SADH activity,[3],0%
same,inhibition of SADH activity,[3],not inhibited
CC(C)CO [isobutanol],oxidation by purified SADH,[7],not oxidized
CO [methanol],oxidation by the purified yeast secondary alcohol dehydrogenase,[1],not oxidized
CCCO [n-propanol],inhibition of SADH activity,[3],did not inhibit
same,oxidation by the purified yeast secondary alcohol dehydrogenase,[1],not oxidized
[Ni+2] [nickel],% inhibition of SADH activity,[3]; [8],20%
CCCCCO [pentan-1-ol],oxidation by the purified yeast secondary alcohol dehydrogenase,[1],not oxidized
"C[n+]1c2ccccc2nc2ccccc21 [phenazine methosulfate, reference compound]",effectiveness as cofactor for oxidation of 2-butanol / C3-C6 secondary alcohols,cell-free SADH system,not effective
same,ability to act as electron acceptor/carrier for the purified enzyme,[1],could not act as electron carrier
Oc1ccccc1 [phenol],oxidation by purified SADH,[7],not oxidized
C=CC [propylene],inhibition of conversion of n-alkanes to sec. alcohols (words),[4],inhibited
same,inhibition of conversion of n-alkanes to sec. alcohols (words),[4]; listed as Propylene,inhibit
CCC=O [ropanal],oxidation by purified SADH,[7],lower rate
same,relative percent rate of oxidation by SADH,[7]; 2-butanol = 100%,2%
O=C(O)CCC(=O)O [succinic acid],oxidation by purified SADH,[7],not oxidized
NNC(N)=S [thiosemicarbazide],inhibition of conversion of n-alkanes to sec. alcohols (words),[4],inhibited
"c1ccc(-c2ccccn2)nc1 [α,α-bipyridyl]",inhibition of production of 2-butanone from 2-butanol by cell suspensions,[2],inhibited
same,% inhibition of SADH activity,[3]; [8],70%
same,inhibition of conversion of n-alkanes to sec. alcohols (words),[4],inhibited
cytochrome c [reference compound],ability to act as electron acceptor/carrier for the purified enzyme,[1],could not act as electron carrier
